Test results from publication PMC4434044, “Influence of terpenoids and acarbose on glycosyltransferases produced by strain Leuconostoc mesenteroides URE 13” (Biotechnology, Biotechnological Equipment, 2014).

What was measured:
[1] = test system: T1, dextransucrase from Leuconostoc mesenteroides URE 13; test: fructose/glucose release from sucrose, coupled hexokinase assay; type: biochemical; settings: 20 mmol/L sodium acetate pH 5.2-5.3, 30 °C; substrate inhibition above 200 mmol
T1 construct: native extracellular enzyme, 180 kDa, from sucrose-grown culture; PEG 1500 precipitation and Sepharose CL-6B size-exclusion

[2] = molecular target: T1, dextransucrase from Leuconostoc mesenteroides URE 13; test: fructose/glucose release from sucrose, coupled hexokinase assay; Lineweaver-Burk; type: biochemical; settings: 1-200 mmol sucrose, 20 mmol/L sodium acetate pH 5.2, 30 °C, inhibition mode not stated
[3] = terpenoid dissolved in DMSO (20% final)

| Ki [2, 3] [mmol] | SMILES | also measured |
| --- | --- | --- |
| – | OC[C@H]1O[C@@](CO)(O[C@H]2O[C@H](CO)[C@@H](O)[C@H](O)[C@H]2O)[C@@H](O)[C@@H]1O [sucrose] | Km [1]: 18.0 mmol |
| 0.28 | CC(=O)OC1C=CC2C(=O)OCC23CCC2C(=O)OC(c4ccoc4)C(OC(C)=O)C2(C)C13 (stereo not shown) [splendidin] | – |
| 0.37 | C[C@H]1[C@H](C)CC[C@]2(C(=O)O)CC[C@]3(C)C(=CC[C@@H]4[C@@]5(C)CC[C@H](O)C(C)(C)[C@@H]5CC[C@]43C)[C@H]12 [ursolic acid] | – |
| – | C[C@H]1O[C@H](O[C@H]2[C@H](O)[C@@H](O)[C@@H](O[C@H]3[C@H](O)[C@@H](O)C(O)O[C@@H]3CO)O[C@@H]2CO)[C@H](O)[C@@H](O)[C@@H]1N[C@H]1C=C(CO)[C@@H](O)[C@H](O)[C@H]1O (stereo partly shown) [acarbose] | Ki [2]: 0.29 mmol |
